Laboratory results as given in patent US11155560B2, “Substituted pyrazolo[1,5-a]pyrimidines for modulating CDK9 activity” (Kronos Bio, Inc., priority 2018, dated 2021).

Target: CDK9/cyclin T1 (Homo sapiens, UniProt P50750)
Assay: CDK9/cyclin T1 kinase inhibition, LANCE assay
Format: biochemical
Conditions: reaction time 60 minutes, 10 μM ATP, 10-dose IC50, compounds 35-126 (127-208 listed, method not stated), read-out: CDK9/cyclin T1 Potency Grade
Protocol: Exemplary compounds of the invention (35-126) were tested for inhibition of CDK9/cyclin T1 kinase. Using a LANCE assay (reaction time 60 minutes), the compounds were tested in 10-dose IC50 duplicate mode with a 3-fold serial dilution starting at 4.3 μM. […] Reactions were carried out at 10 μM ATP. Data was normalized to positive and negative controls and curve fits were analyzed with XLFIT5 as % inhibition vs. log [compound concentration] using a 4-parameter logistic model205. Fit=(A+((B−A)/(1+((C/x)^D)))); Res =(y-fit).

CDK9/cyclin T1, sequence (P50750 whole entry): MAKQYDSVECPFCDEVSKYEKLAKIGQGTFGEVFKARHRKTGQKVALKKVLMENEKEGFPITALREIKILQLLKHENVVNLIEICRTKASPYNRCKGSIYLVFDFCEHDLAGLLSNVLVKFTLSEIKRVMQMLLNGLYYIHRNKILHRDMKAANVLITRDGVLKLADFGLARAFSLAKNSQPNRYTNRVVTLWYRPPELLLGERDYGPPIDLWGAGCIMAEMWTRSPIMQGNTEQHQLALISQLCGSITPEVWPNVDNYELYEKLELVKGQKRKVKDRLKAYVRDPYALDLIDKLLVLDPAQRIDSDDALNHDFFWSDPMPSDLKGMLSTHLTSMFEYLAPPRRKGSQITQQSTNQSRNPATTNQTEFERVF
CDK9/cyclin T1, sequence (O60563 whole entry partner): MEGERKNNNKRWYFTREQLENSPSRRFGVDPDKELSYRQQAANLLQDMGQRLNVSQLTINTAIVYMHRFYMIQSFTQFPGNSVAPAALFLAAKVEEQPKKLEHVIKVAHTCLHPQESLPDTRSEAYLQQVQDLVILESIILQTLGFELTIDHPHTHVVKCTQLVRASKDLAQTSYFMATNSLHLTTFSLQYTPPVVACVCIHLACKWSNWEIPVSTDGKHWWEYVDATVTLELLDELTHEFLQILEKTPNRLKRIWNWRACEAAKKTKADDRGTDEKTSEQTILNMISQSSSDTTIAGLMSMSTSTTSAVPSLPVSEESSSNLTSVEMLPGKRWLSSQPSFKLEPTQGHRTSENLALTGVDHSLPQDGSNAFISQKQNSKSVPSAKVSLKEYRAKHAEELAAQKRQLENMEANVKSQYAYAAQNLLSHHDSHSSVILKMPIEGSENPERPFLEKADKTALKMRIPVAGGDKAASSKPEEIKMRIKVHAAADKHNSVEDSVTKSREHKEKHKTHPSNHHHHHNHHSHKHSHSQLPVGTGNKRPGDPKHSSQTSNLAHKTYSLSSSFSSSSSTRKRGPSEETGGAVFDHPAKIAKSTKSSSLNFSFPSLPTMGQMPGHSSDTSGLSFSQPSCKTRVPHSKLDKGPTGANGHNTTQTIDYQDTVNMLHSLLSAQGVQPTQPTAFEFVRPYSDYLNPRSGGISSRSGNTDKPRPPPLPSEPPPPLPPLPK

| SMILES | IC50 [nM] |
| --- | --- |
| N[C@@H]1CC[C@@H](Nc2cc(C3CCC3)nc3ccnn23)C1 [Compound 42] | 1 to 500 |
| N[C@@H]1CC[C@@H](Nc2cc(C3CC3)nc3ccnn23)C1 [Compound 43] | 1 to 500 |
| CC(C)c1cc(N[C@@H]2CC[C@@H](NC=O)C2)n2nccc2n1 [Compound 46] | 1 to 500 |
| CCc1cc(N[C@H]2CC[C@H](N)C2)n2nccc2n1 [Compound 47] | 1 to 500 |
| CC(C)c1cc(N[C@@H]2CC[C@@H](NC(=O)OCc3ccccc3)C2)n2nccc2n1 [Compound 50] | 1 to 500 |
| O=CN[C@@H]1CC[C@@H](Nc2cc(C3CC3)nc3ccnn23)C1 [Compound 51] | 1 to 500 |
| CCC(C)c1cc(N[C@@H]2CC[C@@H](NC=O)C2)n2nccc2n1 (stereo partly shown) [Compound 52] | 1 to 500 |
| CCC(CC)c1cc(N[C@H]2CC[C@H](NC(=O)c3cnc(C)cn3)C2)n2nccc2n1 [Compound 57] | 1 to 500 |
| COCCN[C@@H]1CC[C@@H](Nc2cc(C(C)C)nc3ccnn23)C1 [Compound 59] | 1 to 500 |
| CC(C)c1cc(N[C@@H]2CC[C@@H](N(O)C(N)=O)C2)n2nccc2n1 [Compound 60] | 1 to 500 |
| CCC(CC)c1cc(N[C@H]2CC[C@H](N(C)CCOC)C2)n2nccc2n1 [Compound 62] | 1 to 500 |
| CN/C(=N/C#N)N[C@@H]1CC[C@@H](Nc2cc(C(C)C)nc3ccnn23)C1 [Compound 63] | 1 to 500 |
| CC(C)c1cc(N[C@H]2CC[C@H](N)C2)n2ncc(C#N)c2n1 [Compound 64] | 1 to 500 |
| CC(C)c1cc(N[C@@H]2CC[C@@H](NC(=O)OCc3ccccc3)C2)n2ncc(Cl)c2n1 [Compound 67] | 1 to 500 |
| CC(C)OC(=O)N[C@@H]1CC[C@@H](Nc2cc(C(C)C)nc3c(Cl)cnn23)C1 [Compound 68] | 501 to 1000 |
| COc1cc(C)cc(-c2cc(N[C@H]3CC[C@H](N)C3)n3nccc3n2)c1 [Compound 70] | 1 to 500 |
| N[C@H]1CC[C@H](Nc2cc(Nc3ccc4ccccc4c3)nc3ccnn23)C1 [Compound 71] | 1 to 500 |
| N[C@H]1CC[C@H](Nc2cc(-c3cccc(Cl)c3)nc3ccnn23)C1 [Compound 75] | 1 to 500 |
| CC(C)Cc1cc(N[C@H]2CC[C@H](N)C2)n2ncc(Cl)c2n1 [Compound 76] | 1 to 500 |
| COc1cc(N[C@@H]2CC[C@@H](N)C2)n2nccc2n1 [Compound 77] | 501 to 1000 |
| CCN(CC)c1cc(N[C@H]2CC[C@H](N)C2)n2nccc2n1 [Compound 79] | 1 to 500 |
| N[C@H]1CC[C@H](Nc2cc(Nc3cccc4ccccc34)nc3ccnn23)C1 [Compound 80] | 1 to 500 |

| SMILES | IC50 [nM] |
| --- | --- |
| O=C(N[C@H]1CC[C@H](Nc2cc(C3CC3)nc3ccnn23)C1)OCc1ccccc1 [Compound 84] | > 1000 |
| Cc1cnn2c(N[C@@H]3CC[C@@H](NC(=O)OC(C)C)C3)cc(C(C)C)nc12 [Compound 85] | 1 to 500 |
| CC(C)N(C)c1cc(N[C@H]2CC[C@H](N)C2)n2nccc2n1 [Compound 86] | 1 to 500 |
| Cc1cnn2c(N[C@@H]3CC[C@@H](NC(=O)OCc4ccccc4)C3)cc(C(C)C)nc12 [Compound 87] | 1 to 500 |
| COCCNc1cc(N[C@H]2CC[C@H](N)C2)n2nccc2n1 [Compound 88] | 501 to 1000 |
| COC(=O)N[C@H]1CC[C@H](Nc2cc(C3CC3)nc3ccnn23)C1 [Compound 89] | > 1000 |
| CN(CCO)c1cc(N[C@H]2CC[C@H](N)C2)n2nccc2n1 [Compound 90] | 1 to 500 |
| CCOc1cc(N[C@H]2CC[C@H](N)C2)n2nccc2n1 [Compound 91] | 501 to 1000 |
| CN(Cc1ccccc1)c1cc(N[C@H]2CC[C@H](N)C2)n2nccc2n1 [Compound 97] | 1 to 500 |
| CCNc1cc(N[C@H]2CC[C@H](N)C2)n2nccc2n1 [Compound 98] | 1 to 500 |
| CN1CCN(c2cc(N[C@H]3CC[C@H](N)C3)n3nccc3n2)CC1 [Compound 99] | > 1000 |
| Cc1cc(-c2cc(N[C@H]3CC[C@H](N)C3)n3nccc3n2)ccn1 [Compound 100] | 1 to 500 |
| COc1cc(-c2cc(N[C@H]3CC[C@H](N)C3)n3nccc3n2)ccn1 [Compound 101] | 1 to 500 |
| CN1CCN(c2cc(N[C@H]3CC[C@H](N)C3)n3nccc3n2)CC1=O [Compound 102] | 1 to 500 |
| Cc1ncc(-c2cc(N[C@H]3CC[C@H](N)C3)n3nccc3n2)cn1 [Compound 103] | 501 to 1000 |
| N[C@H]1CC[C@H](Nc2cc(-c3ccc4c(c3)OCO4)nc3c(Cl)cnn23)C1 [Compound 104] | 1 to 500 |
| Cc1cc(C)cc(-c2cc(N[C@H]3CC[C@H](N)C3)n3nccc3n2)c1 [Compound 105] | 1 to 500 |
| N[C@H]1CC[C@H](Nc2cc(-c3ccc(F)cc3)nc3ccnn23)C1 [Compound 107] | 1 to 500 |
| CC(C)c1ccc(-c2cc(N[C@H]3CC[C@H](N)C3)n3nccc3n2)cc1 [Compound 108] | 1 to 500 |
| N[C@H]1CC[C@H](Nc2cc(C3=CCCCC3)nc3ccnn23)C1 [Compound 109] | 1 to 500 |
| N[C@H]1CC[C@H](Nc2cc(C3=CCOCC3)nc3ccnn23)C1 [Compound 110] | 501 to 1000 |
| N[C@H]1CC[C@H](Nc2cc(-c3cccc(F)c3)nc3ccnn23)C1 [Compound 111] | 1 to 500 |

| SMILES | IC50 [nM] |
| --- | --- |
| N[C@H]1CC[C@H](Nc2cc(C3=CCCOC3)nc3ccnn23)C1 [Compound 112] | 1 to 500 |
| CC(C)(C#N)c1ccc(-c2cc(N[C@H]3CC[C@H](N)C3)n3nccc3n2)cc1 [Compound 113] | 1 to 500 |
| N[C@H]1CC[C@H](Nc2cc(-c3ccc(C4CC4)cc3)nc3ccnn23)C1 [Compound 114] | 1 to 500 |
| N[C@H]1CC[C@H](Nc2cc(C3CCCCC3)nc3ccnn23)C1 [Compound 115] | 1 to 500 |
| Cn1ccc(-c2cc(N[C@H]3CC[C@H](N)C3)n3nccc3n2)n1 [Compound 116] | 1 to 500 |
| CC1(C)CC1c1cc(N[C@H]2CC[C@H](N)C2)n2nccc2n1 (stereo partly shown) [Compound 117] | 1 to 500 |
| N[C@H]1CC[C@H](Nc2cc(C#Cc3ccccc3)nc3ccnn23)C1 [Compound 118] | 1 to 500 |
| N[C@H]1CC[C@H](Nc2cc(C#CC3CCCCC3)nc3ccnn23)C1 [Compound 119] | 1 to 500 |
| N[C@H]1CC[C@H](Nc2cc(C#CC3CC3)nc3ccnn23)C1 [Compound 120] | 1 to 500 |
| CC(C)c1cccc(-c2cc(N[C@H]3CC[C@H](N)C3)n3nccc3n2)c1 [Compound 121] | 1 to 500 |
| CC1CCC(c2cc(N[C@H]3CC[C@H](N)C3)n3nccc3n2)CC1 (stereo partly shown) [Compound 122] | 1 to 500 |
| CC1(c2cc(N[C@H]3CC[C@H](N)C3)n3nccc3n2)CC1 [Compound 123] | 1 to 500 |
| N[C@H]1CC[C@H](Nc2cc(C3CCOC3)nc3ccnn23)C1 (stereo partly shown) [Compound 124] | 501 to 1000 |
| N[C@H]1CC[C@H](Nc2cc(C3CCC(F)(F)CC3)nc3ccnn23)C1 [Compound 125] | 1 to 500 |
| N[C@H]1CC[C@H](Nc2cc(C3=CCOC3)nc3ccnn23)C1 [Compound 126] | 501 to 1000 |
| CC(=O)Nc1cc(N[C@@H]2CC[C@@H](N)C2)n2ncc(Cl)c2n1 [Compound 127] | 1 to 500 |
| CC(=O)Nc1cc(N[C@@H]2CC[C@@H](N)C2)n2nccc2n1 [Compound 128] | > 1000 |
| N[C@@H]1CC[C@@H](Nc2cc(C3CCC3)nc3ccnn23)C1 [Compound 133] | 1 to 500 |
| N[C@@H]1CC[C@@H](Nc2cc(C3CC3)nc3ccnn23)C1 [Compound 134] | 1 to 500 |
| CC(C)c1cc(N[C@@H]2CCN(C)C2)n2nccc2n1 [Compound 135] | > 1000 |
